This is an account of results in PMC11035696, “Prospective de novo drug design with deep interactome learning” (Nature Communications, 2024).

As a reminder, the inhibition is the relative decrease from the control value, in per cent. The EC50 is the concentration needed to bring the measured effect to its halfway point. High values mean a need for much substance, low ones an effect from little substance.

“And” between values parts separate entries of the source, which are not always exact repeats. Equal values may be shown once.

Experiment [1] has as its target XANTHINE OXIDASE (Bos taurus, UniProt P80457). Briefly: Safety off-target panel, enzymatic. Conditions: single point. It counts as biochemical, Bovine. From the text:
(§1) Table S9-S12 list all targets, their species, inhibition (%) and assay type for the experiments conducted in the
(§2) off-targets. […] The numbers for mean
(§3) inhibition (%) represent single point measurements.
(§4) off-targets. […] The numbers for
(§5) mean inhibition (%) represent single point measurements.

Experiment [2] concerns the target T1, retinoic acid receptor (RAR)α (Homo sapiens, UniProt P10276).
T1 construct: RARα (pFA-CMV-hRARα-LBD[104], 1 μM tretinoin); expressed in transfected cells; host or cells: HEK293T
T1 sequence (P10276 183-417 limits assumed): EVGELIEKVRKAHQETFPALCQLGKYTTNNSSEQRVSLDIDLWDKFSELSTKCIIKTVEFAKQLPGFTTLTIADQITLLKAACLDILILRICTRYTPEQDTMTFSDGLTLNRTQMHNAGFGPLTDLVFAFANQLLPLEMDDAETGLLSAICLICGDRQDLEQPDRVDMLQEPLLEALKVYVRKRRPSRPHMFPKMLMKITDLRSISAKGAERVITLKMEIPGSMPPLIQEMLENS
As to the kind of experiment: Nuclear receptor selectivity profiling, hybrid reporter gene assay, RARα. The format is cell-based. As for the experimental part: (§6) Compounds 1–3 were characterized in a hybrid reporter gene assay for their agoniztic effect on human nuclear receptors PPARα/γ/δ, RXRα, FXRα, RARα in HEK293T cells. Compound 1 was tested in an isothermal titration calorimetry (ITC) assay to measure direct binding affinity to the ligand-binding domain of PPARγ. ADME properties were measured in standardized assays at Roche.
(§7) PPAR activation was determined in uniform Gal4-hybrid reporter gene assays for the PPARα, PPARγ and PPARδ isoforms in HEK293T cells (German Collection of Microorganisms and Cell Culture GmbH, DSMZ) which were transiently transfected with pFR-Luc (Stratagene, La Jolla, CA, USA; reporter) and pRL-SV40 (Promega, Madison, WI, USA; internal control) and one pFA-CMV-hPPAR-LBD[97] clone, coding for the hinge region and ligand binding domain of the canonical isoform of human PPARα, PPARγ, PPARδ or respectively. Cells were cultured in Dulbecco’s modified Eagle’s medium (DMEM), high glucose supplemented with 10% fetal calf serum (FCS), sodium pyruvate (1 mM), penicillin (100 U ⋅ ml^-1), and streptomycin (100 μg ⋅ ml^-1) at 37 °C and 5% CO2 and seeded in 96-well plates (3 × 10^4 cells per well). After 24 h, medium was changed to Opti-MEM without supplements and cells were transiently transfected using Lipofectamine LTX reagent (Invitrogen) according to the manufacturer’s protocol. Five hours after transfection, cells were incubated with the test compounds in Opti-MEM supplemented with penicillin (100 U ⋅ ml^-1), streptomycin (100 μg ⋅ ml^-1) and 0.1% DMSO for 16 h before luciferase activity was measured using the Dual-Glo Luciferase Assay System (Promega) according to the manufacturer’s protocol on a Tecan Spark luminometer (Tecan Deutschland GmbH, Germany). Firefly luminescence was divided by Renilla luminescence and multiplied by 1000 resulting in relative light units (RLU) to normalize for transfection efficiency and cell growth. Fold activation was obtained by dividing the mean RLU of a test compound by the mean RLU of the untreated control. All samples were tested in at least three biologically independent experiments in duplicates. For dose-response curve fitting and calculation of EC50 values, the equation “[Agonist] versus response (variable slope—four parameters)” was used in GraphPad Prism (version 7.00, GraphPad Software, La Jolla, CA, USA) with fold activation data. The reference agonizts GW7647 (PPARα)[98],[99], pioglitazone (PPARγ)[100],[101] and L165,041 (PPARδ)[102],[103] were used to validate the assays and to monitor assay performance. Nuclear receptor selectivity profiling was performed with corresponding pFA-CMV-hNR-LBD clones and suitable reference agonizts on RARα (pFA-CMV-hRARα-LBD[104], 1 μM tretinoin), LXRα (pFA-CMV-hLXRα-LBD[104], 1 μM TO901317) and RXRα (pFA-CMV-h RXRα-LBD[105], 1 μM Bexarotene).
(Reporter assays use an easily measured gene product as a stand-in for the process of interest.)

The target of experiment [3] is T2, retinoid X receptor (RXR)α (Homo sapiens, UniProt P19793).
T2 construct: RXRα (pFA-CMV-h RXRα-LBD[105], 1 μM Bexarotene); expressed in transfected cells; host or cells: HEK293T
T2 sequence (P19793 227-458 limits assumed): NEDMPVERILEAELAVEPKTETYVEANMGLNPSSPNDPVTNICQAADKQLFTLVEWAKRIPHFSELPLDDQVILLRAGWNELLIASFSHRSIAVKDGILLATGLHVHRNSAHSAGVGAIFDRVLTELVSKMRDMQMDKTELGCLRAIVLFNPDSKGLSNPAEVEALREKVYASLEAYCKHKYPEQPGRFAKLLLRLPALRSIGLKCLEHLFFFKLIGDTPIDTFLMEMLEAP
Briefly: Nuclear receptor selectivity profiling, hybrid reporter gene assay, RXRα. The format is cell-based. As to the method:
as §6, §7

The target in experiment [4] is T3, human PPARδ (Homo sapiens, UniProt Q03181).
T3 construct: expressed in transfected cells; host or cells: HEK293T
T3 sequence (Q03181 211-439 limits assumed): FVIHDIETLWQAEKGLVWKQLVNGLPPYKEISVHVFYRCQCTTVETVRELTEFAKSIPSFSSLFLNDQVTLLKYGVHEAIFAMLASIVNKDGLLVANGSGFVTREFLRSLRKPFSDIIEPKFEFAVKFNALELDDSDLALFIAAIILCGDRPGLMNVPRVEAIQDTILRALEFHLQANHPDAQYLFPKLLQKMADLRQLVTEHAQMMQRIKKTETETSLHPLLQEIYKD
As to the kind of experiment: Gal4-hybrid reporter gene assay, PPARδ activation. The format is cell-based. As for the experimental part:
as §6
PPAR activation was determined in uniform Gal4-hybrid reporter gene assays for the PPARα, PPARγ and PPARδ isoforms in HEK293T cells (German Collection of Microorganisms and Cell Culture GmbH, DSMZ) which were transiently transfected with pFR-Luc (Stratagene, La Jolla, CA, USA; reporter) and pRL-SV40 (Promega, Madison, WI, USA; internal control) and one pFA-CMV-hPPAR-LBD[97] clone, coding for the hinge region and ligand binding domain of the canonical isoform of human PPARα, PPARγ, PPARδ or respectively. Cells were cultured in Dulbecco’s modified Eagle’s medium (DMEM), high glucose supplemented with 10% fetal calf serum (FCS), sodium pyruvate (1 mM), penicillin (100 U ⋅ ml^-1), and streptomycin (100 μg ⋅ ml^-1) at 37 °C and 5% CO2 and seeded in 96-well plates (3 × 10^4 cells per well). After 24 h, medium was changed to Opti-MEM without supplements and cells were transiently transfected using Lipofectamine LTX reagent (Invitrogen) according to the manufacturer’s protocol. Five hours after transfection, cells were incubated with the test compounds in Opti-MEM supplemented with penicillin (100 U ⋅ ml^-1), streptomycin (100 μg ⋅ ml^-1) and 0.1% DMSO for 16 h before luciferase activity was measured using the Dual-Glo Luciferase Assay System (Promega) according to the manufacturer’s protocol on a Tecan Spark luminometer (Tecan Deutschland GmbH, Germany). Firefly luminescence was divided by Renilla luminescence and multiplied by 1000 resulting in relative light units (RLU) to normalize for transfection efficiency and cell growth. Fold activation was obtained by dividing the mean RLU of a test compound by the mean RLU of the untreated control. […]

Experiment [5] has as its target MONOAMINE OXIDASE-A (Homo sapiens, UniProt P21397). Briefly: Safety off-target panel, enzymatic. It counts as biochemical. Conditions: single point.
Description: as §1, §2, §3, §4, §5

Experiment [6] deals with ANGIOTENSIN CONVERTING ENZYME (Homo sapiens, UniProt P12821). As to the kind of experiment: Safety off-target panel, enzymatic. The format is biochemical. Conditions: single point.
Description: as §1, §2, §3, §4, §5

For experiment [7], the target named is GSK-3B (Homo sapiens, UniProt P49841). As to the kind of experiment: Safety off-target panel, enzymatic. It counts as biochemical. Conditions: single point.
Description: as §1, §2, §3, §4, §5

In experiment [8] the target is ZAP70 (Homo sapiens, UniProt P43403). As to the kind of experiment: Safety off-target panel, enzymatic. It counts as biochemical. The conditions noted are these: single point.
Description: as §1, §2, §3, §4, §5

Experiment [9] addresses PHOSPHODIESTERASE 3B (Homo sapiens, UniProt Q13370). As to the kind of experiment: Safety off-target panel, enzymatic. The format is biochemical. Conditions: single point.
Description: as §1, §2, §3, §4, §5

The target in experiment [10] is CDK2 (Homo sapiens, UniProt P24941). As to the kind of experiment: Safety off-target panel, enzymatic. The format is biochemical. Conditions: single point.
Description: as §1, §2, §3, §4, §5

Experiment [11] deals with CYCLO OXYGENASE 2 (Homo sapiens, UniProt P35354). Briefly: Safety off-target panel, enzymatic. It counts as biochemical. Conditions: single point.
Description: as §1, §2, §3, §4, §5

For experiment [12], the target named is PHOSPHODIESTERASE 4D2 (Homo sapiens, UniProt Q08499). Briefly: Safety off-target panel, enzymatic. It counts as biochemical. Conditions: single point.
Description: as §1, §2, §3, §4, §5

Chain of ANGIOTENSIN CONVERTING ENZYME (P12821 30-1306): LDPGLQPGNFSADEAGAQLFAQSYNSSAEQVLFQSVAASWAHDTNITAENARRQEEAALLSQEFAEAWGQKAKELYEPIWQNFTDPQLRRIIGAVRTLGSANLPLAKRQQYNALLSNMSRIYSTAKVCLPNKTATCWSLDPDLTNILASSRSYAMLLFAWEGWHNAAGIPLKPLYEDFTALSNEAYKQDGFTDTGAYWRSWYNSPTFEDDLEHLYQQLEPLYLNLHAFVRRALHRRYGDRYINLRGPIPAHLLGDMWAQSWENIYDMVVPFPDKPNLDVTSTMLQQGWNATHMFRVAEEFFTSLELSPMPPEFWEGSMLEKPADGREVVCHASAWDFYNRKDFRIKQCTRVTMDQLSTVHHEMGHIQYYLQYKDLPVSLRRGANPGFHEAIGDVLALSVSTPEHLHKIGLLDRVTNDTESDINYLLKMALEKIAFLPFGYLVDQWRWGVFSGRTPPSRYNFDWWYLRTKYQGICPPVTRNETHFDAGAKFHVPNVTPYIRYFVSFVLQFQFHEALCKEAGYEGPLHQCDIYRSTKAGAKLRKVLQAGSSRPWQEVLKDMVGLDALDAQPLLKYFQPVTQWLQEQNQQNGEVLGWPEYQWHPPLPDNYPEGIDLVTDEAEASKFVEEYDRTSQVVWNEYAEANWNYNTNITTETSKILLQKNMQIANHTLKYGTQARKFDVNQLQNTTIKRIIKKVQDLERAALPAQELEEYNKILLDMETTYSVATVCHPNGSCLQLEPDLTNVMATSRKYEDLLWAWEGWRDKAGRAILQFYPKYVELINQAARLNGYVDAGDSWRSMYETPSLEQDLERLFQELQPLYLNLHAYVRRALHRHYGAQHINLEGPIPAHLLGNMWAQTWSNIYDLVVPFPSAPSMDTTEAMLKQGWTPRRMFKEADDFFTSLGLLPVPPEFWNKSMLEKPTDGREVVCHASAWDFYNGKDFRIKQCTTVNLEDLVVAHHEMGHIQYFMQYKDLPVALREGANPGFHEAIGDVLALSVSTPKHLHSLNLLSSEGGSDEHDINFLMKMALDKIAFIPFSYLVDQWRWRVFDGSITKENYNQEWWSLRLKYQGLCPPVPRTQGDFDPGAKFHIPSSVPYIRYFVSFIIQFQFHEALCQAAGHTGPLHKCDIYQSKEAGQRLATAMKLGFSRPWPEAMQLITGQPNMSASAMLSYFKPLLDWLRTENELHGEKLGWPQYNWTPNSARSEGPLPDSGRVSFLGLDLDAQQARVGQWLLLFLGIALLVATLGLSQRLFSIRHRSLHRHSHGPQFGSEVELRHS
Chain of UniProt Q13370 (Q13370 whole entry): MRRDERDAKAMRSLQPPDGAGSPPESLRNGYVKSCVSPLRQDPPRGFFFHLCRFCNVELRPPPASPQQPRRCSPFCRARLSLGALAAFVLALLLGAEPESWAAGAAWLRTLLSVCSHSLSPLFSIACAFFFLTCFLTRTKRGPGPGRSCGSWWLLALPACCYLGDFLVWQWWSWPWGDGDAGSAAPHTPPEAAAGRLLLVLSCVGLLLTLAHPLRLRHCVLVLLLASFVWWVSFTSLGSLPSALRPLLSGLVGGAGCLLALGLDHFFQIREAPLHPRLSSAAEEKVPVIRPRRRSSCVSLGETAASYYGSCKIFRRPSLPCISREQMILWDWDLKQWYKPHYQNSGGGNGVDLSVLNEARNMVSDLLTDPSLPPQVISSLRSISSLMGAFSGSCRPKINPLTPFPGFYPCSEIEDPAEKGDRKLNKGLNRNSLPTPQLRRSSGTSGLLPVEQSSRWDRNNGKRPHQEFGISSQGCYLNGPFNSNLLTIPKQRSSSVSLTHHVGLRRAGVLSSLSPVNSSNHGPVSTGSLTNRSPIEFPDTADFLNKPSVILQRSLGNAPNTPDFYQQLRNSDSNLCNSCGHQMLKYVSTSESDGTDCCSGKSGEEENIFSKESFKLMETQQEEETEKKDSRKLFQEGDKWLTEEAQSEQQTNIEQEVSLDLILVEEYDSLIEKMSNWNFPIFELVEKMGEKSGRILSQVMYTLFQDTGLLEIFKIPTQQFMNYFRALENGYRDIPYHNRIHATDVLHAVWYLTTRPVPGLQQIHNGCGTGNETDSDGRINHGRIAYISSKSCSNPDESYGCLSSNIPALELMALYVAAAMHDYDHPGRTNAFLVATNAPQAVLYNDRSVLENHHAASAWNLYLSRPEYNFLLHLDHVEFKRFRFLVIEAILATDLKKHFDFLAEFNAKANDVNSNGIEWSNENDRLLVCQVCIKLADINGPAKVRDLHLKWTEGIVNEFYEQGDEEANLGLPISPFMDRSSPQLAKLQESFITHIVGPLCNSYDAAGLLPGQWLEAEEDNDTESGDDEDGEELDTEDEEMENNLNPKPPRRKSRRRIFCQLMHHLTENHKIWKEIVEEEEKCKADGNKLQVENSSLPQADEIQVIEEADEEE
Chain of MONOAMINE OXIDASE-A (P21397 whole entry): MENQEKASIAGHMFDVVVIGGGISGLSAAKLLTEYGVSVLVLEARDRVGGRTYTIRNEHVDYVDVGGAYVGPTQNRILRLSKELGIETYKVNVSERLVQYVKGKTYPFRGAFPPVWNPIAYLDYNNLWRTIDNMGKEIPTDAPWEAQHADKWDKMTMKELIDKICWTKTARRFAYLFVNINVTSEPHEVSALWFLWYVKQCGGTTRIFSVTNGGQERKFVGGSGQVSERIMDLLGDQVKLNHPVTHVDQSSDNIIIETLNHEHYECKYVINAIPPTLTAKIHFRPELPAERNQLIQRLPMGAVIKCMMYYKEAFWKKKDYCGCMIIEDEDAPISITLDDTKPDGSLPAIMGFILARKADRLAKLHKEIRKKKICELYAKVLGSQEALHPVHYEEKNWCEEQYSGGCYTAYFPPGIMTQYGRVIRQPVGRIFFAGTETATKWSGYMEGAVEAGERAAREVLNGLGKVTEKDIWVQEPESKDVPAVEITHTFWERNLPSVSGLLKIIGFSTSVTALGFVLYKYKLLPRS
Chain of CYCLO OXYGENASE 2 (P35354 18-604): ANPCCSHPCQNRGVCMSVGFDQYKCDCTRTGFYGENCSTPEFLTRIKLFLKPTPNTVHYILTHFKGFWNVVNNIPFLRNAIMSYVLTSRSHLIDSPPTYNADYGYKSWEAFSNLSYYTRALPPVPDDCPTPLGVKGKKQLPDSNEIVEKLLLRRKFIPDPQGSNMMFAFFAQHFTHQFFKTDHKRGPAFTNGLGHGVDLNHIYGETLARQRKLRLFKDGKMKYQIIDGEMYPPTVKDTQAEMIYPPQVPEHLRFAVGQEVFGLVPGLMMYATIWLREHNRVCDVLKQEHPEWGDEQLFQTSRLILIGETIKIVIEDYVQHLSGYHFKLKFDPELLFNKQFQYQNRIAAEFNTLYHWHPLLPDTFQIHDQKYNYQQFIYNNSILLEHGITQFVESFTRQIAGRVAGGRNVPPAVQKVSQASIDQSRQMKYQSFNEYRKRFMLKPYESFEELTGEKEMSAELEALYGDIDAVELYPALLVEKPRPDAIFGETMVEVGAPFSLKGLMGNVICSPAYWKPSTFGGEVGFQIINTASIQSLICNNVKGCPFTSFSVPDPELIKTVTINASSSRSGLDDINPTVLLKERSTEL
Chain of UniProt Q08499 (Q08499 303-809 limits assumed): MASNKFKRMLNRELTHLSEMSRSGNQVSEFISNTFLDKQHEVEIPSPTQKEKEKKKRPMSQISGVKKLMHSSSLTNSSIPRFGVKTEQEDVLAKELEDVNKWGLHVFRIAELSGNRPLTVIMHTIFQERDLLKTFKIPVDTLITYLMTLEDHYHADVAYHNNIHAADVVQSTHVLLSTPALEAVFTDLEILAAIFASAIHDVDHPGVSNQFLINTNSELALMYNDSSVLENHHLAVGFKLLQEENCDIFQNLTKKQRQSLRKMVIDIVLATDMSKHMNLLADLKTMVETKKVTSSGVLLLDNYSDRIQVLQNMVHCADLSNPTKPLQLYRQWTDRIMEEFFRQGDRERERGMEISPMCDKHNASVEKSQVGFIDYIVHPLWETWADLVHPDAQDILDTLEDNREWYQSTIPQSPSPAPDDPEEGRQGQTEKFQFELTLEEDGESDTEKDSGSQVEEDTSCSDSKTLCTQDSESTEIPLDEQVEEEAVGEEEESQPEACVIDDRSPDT
Chain of GSK-3B (P49841 whole entry): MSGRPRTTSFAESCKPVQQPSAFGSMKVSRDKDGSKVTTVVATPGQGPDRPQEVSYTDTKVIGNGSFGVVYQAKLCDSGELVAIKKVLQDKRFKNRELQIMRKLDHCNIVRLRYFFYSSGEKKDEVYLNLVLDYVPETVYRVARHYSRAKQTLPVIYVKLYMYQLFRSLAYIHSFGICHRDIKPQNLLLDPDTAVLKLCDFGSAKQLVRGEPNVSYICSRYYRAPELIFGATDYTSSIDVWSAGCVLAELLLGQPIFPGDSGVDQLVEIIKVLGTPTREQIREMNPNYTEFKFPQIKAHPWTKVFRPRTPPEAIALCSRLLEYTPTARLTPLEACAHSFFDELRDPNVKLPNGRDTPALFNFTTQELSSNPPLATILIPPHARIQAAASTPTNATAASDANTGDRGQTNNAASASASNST
Chain of ZAP70 (P43403 whole entry): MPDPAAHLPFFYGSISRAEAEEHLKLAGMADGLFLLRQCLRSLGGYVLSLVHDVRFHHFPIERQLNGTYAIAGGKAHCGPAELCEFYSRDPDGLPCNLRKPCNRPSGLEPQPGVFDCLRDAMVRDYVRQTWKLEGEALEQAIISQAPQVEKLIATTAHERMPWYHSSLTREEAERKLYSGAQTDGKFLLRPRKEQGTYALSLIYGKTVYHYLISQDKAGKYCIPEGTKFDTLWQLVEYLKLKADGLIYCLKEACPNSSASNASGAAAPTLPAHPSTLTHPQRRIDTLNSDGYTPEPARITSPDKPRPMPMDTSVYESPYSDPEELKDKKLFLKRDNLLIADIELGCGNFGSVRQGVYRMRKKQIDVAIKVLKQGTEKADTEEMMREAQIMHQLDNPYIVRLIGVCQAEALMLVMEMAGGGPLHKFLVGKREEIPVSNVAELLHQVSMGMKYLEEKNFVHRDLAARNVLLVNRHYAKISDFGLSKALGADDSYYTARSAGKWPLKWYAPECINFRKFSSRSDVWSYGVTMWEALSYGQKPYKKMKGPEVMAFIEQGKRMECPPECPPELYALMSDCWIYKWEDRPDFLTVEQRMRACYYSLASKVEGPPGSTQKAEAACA

As to `Cc1nnc(-c2ccc(OCCCOc3ccc(CCC(=O)O)c(F)c3)c(F)c2)s1` [Compound 1], the inhibition at 10 µM in experiment [1] is -3.1%; in experiment [5] it was 13.3%; in experiment [6], -11.6%; in experiment [7] it was 20.2%; in experiment [8] it was -0.3%; in [9], 1.4%. Moreover, the inhibition at 10 µM in experiment [10] was 3.6%; in experiment [11], -21.7%; in experiment [12], 3.1%. Besides, the “RARα reporter activation, replicate values (DMSO ctrl = 1,000)” value was 0,775 and 0,698 and 0,825 in [2] (3 µM); 1,145 and 0,633 and 0,940 in experiment [2] (10 µM). The “RXRα reporter activation, replicate values (DMSO ctrl = 1,000)” value in [3] (3 µM) is 1,140 and 1,672 and 0,965; in experiment [3] (10 µM) it was 0,945 and 2,262 and 0,954. The compound further showed a 50% effective concentration (EC50) in experiment [4] (HEK293T cells) of 240 ± 50 nM.

As to `COc1ccc(Oc2ccc3ncn(CCOc4ccc(CCC(=O)O)cc4)c3c2)cc1` [Compound 2], the inhibition at 10 µM was 0.4% in experiment [1]; 4.4% in experiment [5]; -44.3% in experiment [6]; -20.3% in experiment [7]; 3.5% in experiment [8]; -26.7% in experiment [9]. Moreover, the inhibition at 10 µM in experiment [10] is 45.9%; in [11], -10.4%; in [12] it was -3.8%. The “RARα reporter activation, replicate values (DMSO ctrl = 1,000)” value in experiment [2] (3 µM) is 1,038 and 0,832 and 1,499; in [2] (10 µM) it was 1,361 and 1,194 and 1,664. The “RXRα reporter activation, replicate values (DMSO ctrl = 1,000)” value in experiment [3] (3 µM) was 1,173 and 1,058 and 1,366; in experiment [3] (10 µM), 1,398 and 1,193 and 1,167. Moreover, the “activity on PPARδ” value in experiment [4] (result in words) is recorded as “no discernible impact”.
